# Tested on: ZR-75-1 human breast cancer xenografts
# Experiment: Growth and response of human ZR-75-1 breast tumor xenografts in estrone-supplemented OVX nude mice, DHEA and/or EM-800 for 9.5 months (Example 1)
# Type: in vivo
# Details: for Inhibition of estrone-stimulated ZR-75-1 tumor size / Category of response: Complete (%) / Category of response: Complete (Number) / Category of response: Partial (%) / Category of response: Partial (Number) / Category of response: Progression (%) / Category of response: Progression (Number) / Category of response: Stable (%) / Category of response: Stable (Number) / Average tumor weight at end of experiment: 9.5 months; for Category of response: Complete (%) / Category of response: Complete (Number) / Category of response: Partial (%) / Category of response: Partial (Number) / Category of response: Progression (%) / Category of response: Progression (Number) / Category of response: Stable (%) / Category of response: Stable (Number) / Average tumor weight at end of experiment: E1-supplemented
# [1] = DHEA 0.3 mg, EM-800 15 μg, or EM-800 15 μg + DHEA 0.3 mg
# [2] = DHEA 1.0 mg, EM-800 50 μg, or EM-800 15 μg + DHEA 1.0 mg
# [3] = DHEA 3.0 mg, EM-800 100 μg, or EM-800 15 μg + DHEA 3.0 mg
compound,measurement,setting,value
"C[C@]12CC[C@H](O)CC1=CC[C@@H]1[C@@H]2CC[C@]2(C)C(=O)CC[C@@H]12 [DHEA, dehydroepiandrosterone]",Inhibition of estrone-stimulated ZR-75-1 tumor size,daily DHEA 0.3 mg or EM-800 15 μg,50.4%
same,Inhibition of estrone-stimulated ZR-75-1 tumor size,daily DHEA 1.0 mg or EM-800 50 μg,76.8%
same,Inhibition of estrone-stimulated ZR-75-1 tumor size,daily DHEA 3.0 mg or EM-800 100 μg,80.0%
same,Inhibition of terminal tumor weight,DHEA 0.3 mg,67%
same,Inhibition of terminal tumor weight,DHEA 1.0 mg,82%
same,Inhibition of terminal tumor weight,DHEA 3.0 mg,85%
same,Category of response: Complete (%),[1],28.6%
same,Category of response: Complete (Number),[1],4
same,Category of response: Partial (%),[1],0 (0) %
same,Category of response: Partial (Number),[1],0 (0)
same,Category of response: Progression (%),[1],50.0%
same,Category of response: Progression (Number),[1],7
same,Category of response: Stable (%),[1],21.4%
same,Category of response: Stable (Number),[1],3
same,Category of response: Complete (%),[2],26.7%
same,Category of response: Complete (Number),[2],4
same,Category of response: Partial (%),[2],0 (0) %
same,Category of response: Partial (Number),[2],0 (0)
same,Category of response: Progression (%),[2],53.3%
same,Category of response: Progression (Number),[2],8
same,Category of response: Stable (%),[2],20.0%
same,Category of response: Stable (Number),[2],3
same,Category of response: Complete (%),[3],20.0%
same,Category of response: Complete (Number),[3],3
same,Category of response: Partial (%),[3],0 (0) %
same,Category of response: Partial (Number),[3],0 (0)
same,Category of response: Progression (%),[3],66.7%
same,Category of response: Progression (Number),[3],10
same,Category of response: Stable (%),[3],13.3%
same,Category of response: Stable (Number),[3],2
same,Average tumor weight at end of experiment,"daily DHEA 0.3 mg, EM-800 15 μg, or EM-800 15 μg + DHEA 0.3 mg",0.37 ± 0.12 g
same,Average tumor weight at end of experiment,"daily DHEA 1.0 mg, EM-800 50 μg, or EM-800 15 μg + DHEA 1.0 mg",0.20 ± 0.06 g
same,Average tumor weight at end of experiment,"daily DHEA 3.0 mg, EM-800 100 μg, or EM-800 15 μg + DHEA 3.0 mg",0.17 ± 0.06 g
